In PMC13192270, “RhlR quorum-sensing receptor ligand sensitivity regulates the differential expression of phenazine genes in Pseudomonas aeruginosa” (Journal of Bacteriology, 2026):
Residue numbers refer to the chain shown, from its start. Where two headings read alike, the source gives them in different places.

Key:
Test in all cases: E. coli prhlA-luxCDABE luciferase reporter assay
Assay type in all cases: cell-based
RhlR (G46M) = molecular target: T1, RhlR (G46M) (Pseudomonas aeruginosa, UniProt P54292, G46M)
T1 construct: expressed in transfected cells; host or cells: E. coli carrying pBAD-A-rhlR mutant, pCS26-prhlA-luxCDABE and pACYC-pqsE or empty pACYC
Source text: (§1) Previous analysis of the RhlR LBP focused on highly conserved residues that were known from other AHL-binding proteins to be important contacts for AHL molecules, particularly the lactone head group. We performed conservation analyses on 300 LuxR-type receptors to determine variable and moderately conserved residues in the LBP (Fig. 1B) and, in conjunction with our previously determined experimental structure of WT RhlR bound to the synthetic agonist mBTL, used for docking C4- and C6HSL. Based on our docking simulations, C4- and C6HSL occupy a similar position in the LBP as mBTL, a highly efficacious activator of RhlR (Fig. 1C; Fig. S1). We targeted residues A44, G46, T58, L69, Y72, D81, I84, W96, and W108 (Fig. 1B and C). These residues were selected because of their proximity to the acyl tail of C4HSL, as well as the differences in conservation that are observed at these sites. We used an E. coli luciferase reporter assay to monitor ligand-dependent activation of WT RhlR and RhlR variants. WT RhlR and RhlR variants were expressed under the control of an arabinose-inducible promoter (Fig. S2). Transcription was monitored by light production via the expression of the luxCDABE operon controlled by the RhlR-dependent promoter of rhlA. Binding of RhlR to the rhlA promoter is highly dependent on the C4HSL-RhlR interaction, based on ChIP-seq analyses performed in P. aeruginosa as well as previously published E. coli reporter systems ([34], [39]). After expressing WT RhlR and RhlR variants in the E. coli reporter system, we performed dose response assays using C4HSL to calculate the concentration of C4HSL required to activate the reporter system to 50% maximum levels (EC50 value; Table 1). As expected, transcription activation by WT RhlR increased with increased C4HSL levels, with an EC50 value of ~2 µM. We observed a range of responses. Figure 1C depicts the targeted residues, which are colored based on the effect of amino acid substitution.
(§2) RhlR requires the accessory-binding protein, PqsE, for maximal activity. To determine if PqsE expression altered the activation of RhlR variants, we assessed AHL-dependent RhlR activation of the prhlA-luxCDABE reporter in the presence of a third plasmid that constitutively expresses PqsE in E. coli. […] RhlR variants that were still active but with increased EC50 values for C4HSL could have their activity enhanced by PqsE. […] Thus, alterations to the LBP can diminish the additive effect of PqsE-dependent transcription, indicating a potential role of allosteric conformational changes dependent on ligand occupancy. […] RhlR variants at residues I84 and W108 could not be activated by C4HSL, and thus, light levels remained low at all concentrations that were tested. Unlike the aforementioned variants, RhlR I84M/W and RhlR W108F/Y were activated by the expression of PqsE (Fig. S4).
(§3) All E. coli strains in this study were grown overnight with shaking in 5 mL Luria-Bertani (LB) media supplemented with 100 µg/mL ampicillin, 50 µg/mL kanamycin, and 15 µg/mL tetracycline at 37°C overnight. Overnight cultures were diluted 1:100 into fresh media, grown at 37°C with shaking for 2 h until reaching OD600 = 0.4. Cultures were induced with a final concentration of 0.1% arabinose, and 198 μL of the induced culture was mixed with 2 μL of C4HSL dilutions in a clear-bottom, black-opaque 96-well plate (Corning) and grown at 37°C with shaking for 4 h. The C4HSL dilution series was performed 1:1 in dimethyl sulfoxide (DMSO) with a top final concentration of 10 μM. Luminescence and optical density were recorded using a Glomax (Promega) plate reader.

RhlR (I84M) = molecular target: T2, RhlR (I84M) (Pseudomonas aeruginosa, UniProt P54292, I84M); conditions: pqsE co-expressed
T2 construct: expressed in transfected cells; host or cells: E. coli carrying pBAD-A-rhlR mutant, pCS26-prhlA-luxCDABE and pACYC-pqsE or empty pACYC
Source text: as §1, §2, §3

RhlR (A44M) = molecular target: T3, RhlR (A44M) (Pseudomonas aeruginosa, UniProt P54292, A44M); conditions: even at the highest dose of C4HSL tested
T3 construct: expressed in transfected cells; host or cells: E. coli carrying pBAD-A-rhlR mutant, pCS26-prhlA-luxCDABE and pACYC-pqsE or empty pACYC
Source text: as §1, §2, §3

RhlR (L69K) = molecular target: T4, RhlR (L69K) (Pseudomonas aeruginosa, UniProt P54292, L69K); conditions: pqsE co-expressed
T4 construct: expressed in transfected cells; host or cells: E. coli carrying pBAD-A-rhlR mutant, pCS26-prhlA-luxCDABE and pACYC-pqsE or empty pACYC
Source text: as §1, §2, §3

RhlR (I84W) = molecular target: T5, RhlR (I84W) (Pseudomonas aeruginosa, UniProt P54292, I84W); conditions: pqsE co-expressed
T5 construct: expressed in transfected cells; host or cells: E. coli carrying pBAD-A-rhlR mutant, pCS26-prhlA-luxCDABE and pACYC-pqsE or empty pACYC
Source text: as §1, §2, §3

RhlR (L69M) = molecular target: T6, RhlR (L69M) (Pseudomonas aeruginosa, UniProt P54292, L69M)
T6 construct: expressed in transfected cells; host or cells: E. coli carrying pBAD-A-rhlR mutant, pCS26-prhlA-luxCDABE and pACYC-pqsE or empty pACYC
Source text: as §1, §2, §3

RhlR (G46W) = molecular target: T7, RhlR (G46W) (Pseudomonas aeruginosa, UniProt P54292, G46W); conditions: even at the highest dose of C4HSL tested
T7 construct: expressed in transfected cells; host or cells: E. coli carrying pBAD-A-rhlR mutant, pCS26-prhlA-luxCDABE and pACYC-pqsE or empty pACYC
Source text: as §1, §2, §3

WT RhlR = molecular target: T8, WT RhlR (Pseudomonas aeruginosa, UniProt P54292)
T8 construct: expressed in transfected cells; host or cells: E. coli carrying pBAD-A-rhlR, pCS26-prhlA-luxCDABE and pACYC-pqsE or empty pACYC
T8 sequence (P54292 1-241): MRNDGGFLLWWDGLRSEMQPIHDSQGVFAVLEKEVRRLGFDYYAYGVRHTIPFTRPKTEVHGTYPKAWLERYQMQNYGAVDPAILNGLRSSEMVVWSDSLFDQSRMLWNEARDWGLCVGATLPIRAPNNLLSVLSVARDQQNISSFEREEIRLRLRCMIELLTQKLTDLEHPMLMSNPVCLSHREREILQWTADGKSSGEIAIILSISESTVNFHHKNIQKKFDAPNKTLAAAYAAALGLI
Source text: as §1, §2, §3

RhlR (T58V) = molecular target: T9, RhlR (T58V) (Pseudomonas aeruginosa, UniProt P54292, T58V)
T9 construct: expressed in transfected cells; host or cells: E. coli carrying pBAD-A-rhlR mutant, pCS26-prhlA-luxCDABE and pACYC-pqsE or empty pACYC
T9 sequence (P54292 1-241 T58V): T8 sequence (P54292 1-241) with T58V
Source text: as §1, §2, §3

CCCC(=O)N[C@H]1CCOC1=O [C4HSL, N-butyryl-L-homoserine lactone]
activation by C4HSL in the reporter system (RhlR (G46M); even at the highest dose of C4HSL tested): not activated | EC50 (RhlR (G46M); pqsE co-expressed): 32.7 µM | EC50 (RhlR (I84M)): 3.68 µM | activation by C4HSL in the reporter system (RhlR (A44M)): not activated | EC50 (RhlR (L69K)): 13.2 µM | EC50 (RhlR (I84W)): 5.2 µM | EC50 (RhlR (L69M); Vector (no pqsE)): 13.8 µM | EC50 (RhlR (L69M); pqsE co-expressed): 1.72 µM | activation by C4HSL in the reporter system (RhlR (G46W)): not activated | EC50 (WT RhlR; Vector (no pqsE), read-out: EC50): 2420 nM | EC50 (WT RhlR; pqsE co-expressed, read-out: EC50): 534 nM | C4HSL required for QS activation (WT RhlR; statement in discussion): > 1 µM | EC50 (WT RhlR; without PqsE, read-out: EC50 value): ~2000 nM | EC50 (RhlR (T58V); Vector (no pqsE)): 660 nM | EC50 (RhlR (T58V); pqsE co-expressed): 148 nM
